Data reported in paper PMC11243149, “Assessing the Effects of Thiazole-Carboxamide Derivatives on the Biophysical Properties of AMPA Receptor Complexes as a Potential Neuroprotective Agent” (Molecules, 2024).
Like-named read-outs stand apart in the source and are kept apart here.

Tests used:
Assay type in all cases: cell-based
GluA1/2 = target: T1, GluA1/2 (Homo sapiens, UniProt P42261+P42262); test: Whole-cell patch-clamp recordings of heteromeric GluA1/2 AMPAR in transfected HEK293T cells; conditions: for Amplitude (glutamate plus TC compound): 10 mM glutamate + TC compound (12 µM optimal concentration), HEK293T, -60 mV, pH 7.4, 22 °C, mean ± SEM; for Amplitude (glutamate plus TC compound) / Amplitude, applying glutamate alone after TC compound: n = 10; for Amplitude, applying glutamate alone after TC compound: 10 mM glutamate alone after 20 s wash following the TC compound; for A/AI: ratio of current with glutamate alone (A) to inhibited current after TC compound (AI); for t deact: weighted tau of deactivation, 10 mM glutamate for 1 ms, glutamate alone 2.5±0.3; for t deact / t des: with TC compound; for t des: weighted tau of desensitization, 10 mM glutamate 500 ms, glutamate alone 5.2±0.5
T1 construct: expressed in transfected cells; host or cells: HEK293T
T1 sequence (P42261 19-906 isoform P42261-2 limits assumed): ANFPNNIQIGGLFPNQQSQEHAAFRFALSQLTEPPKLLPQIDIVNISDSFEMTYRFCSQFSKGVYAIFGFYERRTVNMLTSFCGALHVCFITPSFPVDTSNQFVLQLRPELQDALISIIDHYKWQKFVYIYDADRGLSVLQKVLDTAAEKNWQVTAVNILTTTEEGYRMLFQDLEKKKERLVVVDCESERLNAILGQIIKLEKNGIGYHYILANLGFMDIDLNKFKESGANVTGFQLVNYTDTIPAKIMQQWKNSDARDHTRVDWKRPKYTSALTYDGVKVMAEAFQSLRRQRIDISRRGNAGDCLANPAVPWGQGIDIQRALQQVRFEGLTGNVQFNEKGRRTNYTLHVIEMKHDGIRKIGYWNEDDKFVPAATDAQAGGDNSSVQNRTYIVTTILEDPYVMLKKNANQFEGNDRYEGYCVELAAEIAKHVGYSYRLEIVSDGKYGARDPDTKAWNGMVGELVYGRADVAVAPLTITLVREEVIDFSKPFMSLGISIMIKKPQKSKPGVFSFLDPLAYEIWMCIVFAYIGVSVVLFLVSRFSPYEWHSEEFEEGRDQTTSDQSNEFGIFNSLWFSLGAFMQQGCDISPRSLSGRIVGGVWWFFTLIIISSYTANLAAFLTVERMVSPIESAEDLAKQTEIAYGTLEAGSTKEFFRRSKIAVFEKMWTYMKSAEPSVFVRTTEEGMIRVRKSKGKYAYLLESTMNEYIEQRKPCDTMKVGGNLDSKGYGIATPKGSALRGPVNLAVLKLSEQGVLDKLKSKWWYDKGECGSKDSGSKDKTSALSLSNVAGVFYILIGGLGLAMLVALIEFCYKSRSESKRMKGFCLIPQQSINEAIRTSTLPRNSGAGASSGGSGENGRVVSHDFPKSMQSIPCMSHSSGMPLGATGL
T1 sequence (P42262 25-883 isoform P42262-2 limits assumed): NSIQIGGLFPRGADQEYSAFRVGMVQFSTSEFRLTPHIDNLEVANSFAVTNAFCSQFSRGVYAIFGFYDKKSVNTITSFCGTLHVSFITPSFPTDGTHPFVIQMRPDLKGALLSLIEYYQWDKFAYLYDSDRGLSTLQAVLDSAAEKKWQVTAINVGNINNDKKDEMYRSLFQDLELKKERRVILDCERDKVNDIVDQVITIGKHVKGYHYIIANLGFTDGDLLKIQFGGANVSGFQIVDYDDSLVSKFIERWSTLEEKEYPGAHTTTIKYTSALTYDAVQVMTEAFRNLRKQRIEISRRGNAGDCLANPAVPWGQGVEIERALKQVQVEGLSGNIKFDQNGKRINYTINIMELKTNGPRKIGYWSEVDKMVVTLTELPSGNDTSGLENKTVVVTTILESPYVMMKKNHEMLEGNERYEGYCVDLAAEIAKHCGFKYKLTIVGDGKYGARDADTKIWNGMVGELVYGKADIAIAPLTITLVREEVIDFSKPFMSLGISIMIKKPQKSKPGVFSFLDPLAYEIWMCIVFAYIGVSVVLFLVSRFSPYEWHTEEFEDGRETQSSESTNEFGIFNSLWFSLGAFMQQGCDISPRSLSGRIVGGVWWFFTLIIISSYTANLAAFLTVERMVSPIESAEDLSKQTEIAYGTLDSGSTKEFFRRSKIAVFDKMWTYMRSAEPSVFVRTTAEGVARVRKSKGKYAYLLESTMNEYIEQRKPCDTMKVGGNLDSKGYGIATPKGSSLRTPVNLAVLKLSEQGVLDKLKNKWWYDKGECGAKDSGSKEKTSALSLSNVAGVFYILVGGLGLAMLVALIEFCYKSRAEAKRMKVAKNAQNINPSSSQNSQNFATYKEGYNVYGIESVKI
Protocol: (§1) The effect of five TC compounds on whole-cell currents of four AMPAR subunits (GluA1, GluA1/2, GluA2, and GluA2/3) was investigated using transfected HEK293T cells. Each compound was applied separately to each subunit, with experiments conducted on 8–10 cells per condition to ensure reproducibility. […] At a glutamate concentration of 10 mM and a 500 ms protocol, approximately 95% of AMPAR channels were open. The A/AI ratio was calculated to compare the results, where A represents normalized current readings and AI indicates the inhibited current following TC compound exposure. […] Following closely, TC-1 inhibited the tested subunits by 5-fold.
(§2) The IC50 values were examined using GraphPad Prism software 9.5.0.730 (x64) (Table S6), which confirmed these findings. The IC50 values of TC substances were calculated by standardizing the peak current amplitudes using data obtained from 8–10 cells. Following a 500 ms exposure to the compounds, the cells were rinsed with glutamate for 20 s. Next, a solution containing just glutamate at a concentration of 10 mM was administered, and the resulting immediate induced electrical current was measured and documented (Figure 3).
(§3) In addition, an evaluation was conducted on the deactivation rates (τw deact) of all the examined chemicals to investigate their impact on the kinetics of deactivation. The chemicals were assessed for their effect on the deactivation kinetics of AMPAR subunits by briefly administering 10 mM glutamate for 1 ms to begin currents. This experimental setup allowed for the observation of τw deact under controlled conditions. […] TC-5 induced an approximately 2-fold increase in τw deact across all four tested subunits. […] These findings highlight the differential impact of TC compounds on deactivation kinetics across AMPAR subunits, shedding light on their potential neuroprotective mechanisms.
(§4) The flip isoform was uniformly employed across all AMPAR subunits in this study. These subunits were subcloned into the pRK vector and expressed in Human Embryonic kidney cells sourced (Sigma, München, Germany). HEK293T cells were grown in Dulbecco Modified Eagle Medium (DMEM) (Sigma, München, Germany) containing 10% FBS (fetal bovine serum), 0.1 mg/mL streptomycin, and 1 mM sodium pyruvate (Biological Industries; Beit-Haemek, Israel). HEK293T cells were incubated at 37 °C and 5% CO2 was supplemented to the medium. It was subcultured twice a week until cells reached pass #20. The transfection reagent used was either jetPRIME (Polyplus: New York, NY, USA) or Lipofectamine 2000 (Invitrogen; San Diego, CA, USA). Cells were kept for 36 h. after transfection in 12-well plates. Then, they were replated on coverslips coated with Laminin (1 mg/mL; Sigma, Germany) for electrophysiology recordings. Cells were then seeded in Petri dishes in DMEM supplemented with 10% fetal calf serum and antibiotics and maintained in a humidified incubator at 37 °C and 5% CO2. Highly fluorescent cells were identified and selected for recording post-transfection.
(§5) HEK293T cells were recorded for 36–48 h, at a temperature of 22 °C, with a membrane potential of −60 mV. HEK293T cells were recorded 36–48 h after transfection using IPA (Integrated Patch Amplifier) via the […], at a temperature of 22 °C, with a membrane potential of −60 mV. SutterPatch Software v. 1.1.1 (Sutter Instruments, Novato, CA, USA) was used to digitize membrane currents for a short period. The sampling frequency was set to 10 kHz, and the low-pass filter was set to 2 kHz. Borosilicate glass was used to fabricate the patch electrodes with a resistance of 2–4 MΩ. The extracellular solution contained the following (values are in mM): 150 NaCl, 2.8 KCl, 0.5 MgCl2, 2 CaCl2, and 10 HEPES, adjusted to pH 7.4 with NaOH. The pipette solution contained the following (values are in mM): 110 CsF, 30 CsCl, 4 NaCl, 0.5 CaCl2, 10 […], and 10 HEPES, adjusted to pH 7.2 with CsOH. […]

GluA2 = target: T2, GluA2 (Homo sapiens, UniProt P42262); test: Whole-cell patch-clamp recordings of homomeric GluA2 AMPAR in transfected HEK293T cells; conditions: for Amplitude (glutamate plus TC compound): 10 mM glutamate + TC compound (12 µM optimal concentration), HEK293T, -60 mV, pH 7.4, 22 °C, mean ± SEM; for Amplitude (glutamate plus TC compound) / Amplitude, applying glutamate alone after TC compound: n = 10; for Amplitude, applying glutamate alone after TC compound: 10 mM glutamate alone after 20 s wash following the TC compound; for t deact: weighted tau of deactivation, 10 mM glutamate for 1 ms, glutamate alone 2.3±0.1; for t deact / t des: with TC compound; for t des: weighted tau of desensitization, 10 mM glutamate 500 ms, glutamate alone 2.6±0.1
T2 construct: expressed in transfected cells; host or cells: HEK293T
T2 sequence (P42262 25-883 isoform P42262-2 limits assumed, species assumed): as the sequence (P42262 25-883 isoform P42262-2 limits assumed) above
Protocol: as §1, §2, §3, §4, §5

GluA1 = target: T3, GluA1 (Homo sapiens, UniProt P42261); test: Whole-cell patch-clamp recordings of homomeric GluA1 AMPAR in transfected HEK293T cells; conditions: GluA1; for Amplitude (glutamate plus TC compound): 10 mM glutamate + TC compound (12 µM optimal concentration), HEK293T, -60 mV, pH 7.4, 22 °C, mean ± SEM; for t deact: weighted tau of deactivation, 10 mM glutamate for 1 ms, glutamate alone 2.1±0.1; for t deact / t des: with TC compound; for t des: weighted tau of desensitization, 10 mM glutamate 500 ms, glutamate alone 2.5±0.1
T3 construct: expressed in transfected cells; host or cells: HEK293T
T3 sequence (P42261 19-906 isoform P42261-2 limits assumed, species assumed): as the sequence (P42261 19-906 isoform P42261-2 limits assumed) above
Protocol: as §1, §2, §3, §4, §5

GluA2/3 = target: T4, GluA2/3 (Homo sapiens, UniProt P42262+P42263); test: Whole-cell patch-clamp recordings of heteromeric GluA2/3 AMPAR in transfected HEK293T cells; conditions: for Amplitude (glutamate plus TC compound): 10 mM glutamate + TC compound (12 µM optimal concentration), HEK293T, -60 mV, pH 7.4, 22 °C, mean ± SEM; for Amplitude (glutamate plus TC compound) / Amplitude, applying glutamate alone after TC compound: n = 10; for Amplitude, applying glutamate alone after TC compound: 10 mM glutamate alone after 20 s wash following the TC compound; for A/AI: ratio of current with glutamate alone (A) to inhibited current after TC compound (AI); for t deact: weighted tau of deactivation, 10 mM glutamate for 1 ms, glutamate alone 2.6±0.3; for t deact / t des: with TC compound; for t des: weighted tau of desensitization, 10 mM glutamate 500 ms, glutamate alone 2.7±0.2
T4 construct: expressed in transfected cells; host or cells: HEK293T
T4 sequence (P42262 25-883 isoform P42262-2 limits assumed): as the sequence (P42262 25-883 isoform P42262-2 limits assumed) above
T4 sequence (P42263 29-894 isoform P42263-2 limits assumed): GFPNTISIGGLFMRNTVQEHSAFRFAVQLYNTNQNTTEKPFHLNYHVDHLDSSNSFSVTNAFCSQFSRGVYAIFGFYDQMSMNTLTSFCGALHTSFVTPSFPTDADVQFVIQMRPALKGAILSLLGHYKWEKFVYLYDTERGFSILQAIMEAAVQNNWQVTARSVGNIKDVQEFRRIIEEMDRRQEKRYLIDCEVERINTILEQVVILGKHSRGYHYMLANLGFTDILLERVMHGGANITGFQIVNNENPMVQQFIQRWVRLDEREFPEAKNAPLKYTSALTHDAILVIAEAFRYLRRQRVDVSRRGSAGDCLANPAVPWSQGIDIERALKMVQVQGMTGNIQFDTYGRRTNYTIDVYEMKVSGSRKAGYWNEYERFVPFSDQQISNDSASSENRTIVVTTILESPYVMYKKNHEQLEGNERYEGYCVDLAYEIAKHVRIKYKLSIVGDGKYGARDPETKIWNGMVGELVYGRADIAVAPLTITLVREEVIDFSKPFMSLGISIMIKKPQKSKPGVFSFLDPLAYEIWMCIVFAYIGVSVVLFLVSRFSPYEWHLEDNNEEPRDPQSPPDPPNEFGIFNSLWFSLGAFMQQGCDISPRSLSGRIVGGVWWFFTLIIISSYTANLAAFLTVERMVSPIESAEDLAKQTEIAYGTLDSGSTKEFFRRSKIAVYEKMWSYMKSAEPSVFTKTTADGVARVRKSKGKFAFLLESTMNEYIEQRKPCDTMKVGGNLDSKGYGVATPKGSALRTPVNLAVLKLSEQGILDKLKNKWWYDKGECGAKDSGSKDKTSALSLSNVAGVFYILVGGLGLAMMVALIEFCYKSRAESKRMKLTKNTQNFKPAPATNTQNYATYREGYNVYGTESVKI
Protocol: as §1, §2, §3, §4, §5

[1] = tested on: AMPAR subunits (GluA1, GluA1/2, GluA2, and GluA2/3); test: Whole-cell patch-clamp recordings, statements over all tested AMPAR subunits; conditions: for reduction in τw des: across all examined subunits; for increase in τw deact / decrease in AMPAR subunit activity (inhibition of the whole-cell current): all tested subunits; for increase in τw deact: 10 mM glutamate for 1 ms; for decrease in AMPAR subunit activity (inhibition of the whole-cell current): 10 mM glutamate, 500 ms protocol
Protocol: as §1
A thorough investigation was performed to assess the neuroprotective potential of the TC compounds. The influence of the five TC compounds on the desensitization traces is seen in Figure 4, namely in panels b, d, f, and h. TC-2 caused a substantial reduction in τw des in all receptor subunits, with decreases ranging from 2 to 3 times.
as §3, §4
as §5, with “CsOH. Using double barrel glass (theta tube), glutamate and the solutions of choice were rapidly administered, and the theta tube was mounted on a high-speed piezo solution switcher (Automate Scientific, Berkeley, CA, USA).” for “CsOH.”

[2] = Table S6, read-out: Log IC50 (converted)
[3] = ratio of current with glutamate alone (A) to inhibited current after TC compound (AI)
[4] = Table S6, peak current amplitudes, 8-10 cells, GraphPad Prism fit, read-out: IC50

Amplitude (glutamate plus TC compound) (GluA1/2)	Amplitude, applying glutamate alone after TC compound (GluA1/2)	IC50 (GluA1/2; [2])	A/AI (GluA1/2)	t deact (GluA1/2)	Amplitude (glutamate plus TC compound) (GluA2)	Amplitude, applying glutamate alone after TC compound (GluA2)	IC50 (GluA2; [2])	IC50 (GluA2; read-out: IC50)	t deact (GluA2)	Amplitude (glutamate plus TC compound) (GluA1; n = 10)	IC50 (GluA1; [2])	t deact (GluA1)	Amplitude (glutamate plus TC compound) (GluA2/3)	Amplitude, applying glutamate alone after TC compound (GluA2/3)	IC50 (GluA2/3; [2])	A/AI (GluA2/3)	Compound	t des (GluA1/2)	t des (GluA2)	t des (GluA1)	other results
115±12 pA	597±66 pA	3.09 µM	5.38±0.08	6.0 ± 0.5 ms	212±20 pA	1131±105 pA	3.02 µM	3.02 µM	6.3 ± 0.2 ms	172±18 pA	3.24 µM	5.6 ± 0.3 ms	94±14 pA	484±68 pA	3.02 µM	5.33±0.23	COc1ccc(-c2nc(C(=O)Nc3cc(OC)c(OC)c(OC)c3)cs2)cc1 [TC-2]	3.7 ± 0.3 ms	0.9 ± 0.1 ms	1.1 ± 0.1 ms	IC50 (GluA1/2; read-out: IC50): 3.1 µM; A/AI (GluA2; [3]): 5.49±0.05; Amplitude, applying glutamate alone after TC compound (GluA1; 10 mM glutamate alone after 20 s wash following the TC compound, n = 10): 841±88 pA; IC50 (GluA1; read-out: IC50): 3.2 µM; IC50 (GluA2/3; read-out: IC50): 3.04 µM; t deact (GluA2/3): 5.9 ± 0.4 ms; t des (GluA2/3): 1.0 ± 0.2 ms; reduction in τw des [1]: 2 to 3 fold; increase in τw deact [1]: ~2.5 fold; decrease in AMPAR subunit activity (inhibition of the whole-cell current) [1]: ~5.5 fold
123±20 pA	553±89 pA	3.47 µM	4.80±0.07	5.6 ± 0.4 ms	250±35 pA	1071±134 pA	3.31 µM	3.35 µM	5.8 ± 0.3 ms	177±33 pA	3.55 µM	5.5 ± 0.4 ms	99±22 pA	443±96 pA	3.39 µM	4.79±0.20	COc1ccc(-c2nc(C(=O)Nc3cc(OC)ccc3OC)cs2)cc1 [TC-5]	3.8 ± 0.3 ms	1.2 ± 0.1 ms	1.4 ± 0.1 ms	IC50 (GluA1/2; [4]): 3.49 µM; IC50 (GluA1; [4]): 3.51 µM; A/AI (GluA1; [3]): 4.67±0.10; IC50 (GluA2/3; [4]): 3.42 µM; t deact (GluA2/3): 5.7 ± 0.4 ms; t des (GluA2/3): 1.3 ± 0.2 ms; reduction in τw des [1]: roughly twofold; increase in τw deact [1]: around 2 fold; decrease in AMPAR subunit activity (inhibition of the whole-cell current) [1]: approximately 5 fold
